The experiment addresses T1, catalytic domain of human Bub1 (amino acids 704-1085) (Homo sapiens, UniProt O43683).
T1 construct: catalytic domain of human Bub1 (amino acids 704-1085); His6 (N); made in house; host or cells: Hi5 insect cells
Put plainly: Bub1 kinase assay (TR-FRET). It counts as biochemical. The settings on record: TR-FRET; ATP 10 μM, peptide substrate 1 μM; 60 min at 22° C.; average or median if tested more than once; read-out: Inhibition of Bub1 kinase IC50. The procedure, abridged:
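Human Bub1 catalytic domain (704-1085, His6-tagged, Hi5-expressed, ~200 ng/mL) preincubated with compound 15 min at 22 °C, then reacted 60 min at 22 °C with 10 μM ATP and 1 μM biotinylated peptide substrate, pH 7.5. EDTA stop; TR-FRET 665/620 ratio; IC50 from 4-parameter fit, 11 concentrations in duplicate.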

T1 sequence (O43683 704-1085): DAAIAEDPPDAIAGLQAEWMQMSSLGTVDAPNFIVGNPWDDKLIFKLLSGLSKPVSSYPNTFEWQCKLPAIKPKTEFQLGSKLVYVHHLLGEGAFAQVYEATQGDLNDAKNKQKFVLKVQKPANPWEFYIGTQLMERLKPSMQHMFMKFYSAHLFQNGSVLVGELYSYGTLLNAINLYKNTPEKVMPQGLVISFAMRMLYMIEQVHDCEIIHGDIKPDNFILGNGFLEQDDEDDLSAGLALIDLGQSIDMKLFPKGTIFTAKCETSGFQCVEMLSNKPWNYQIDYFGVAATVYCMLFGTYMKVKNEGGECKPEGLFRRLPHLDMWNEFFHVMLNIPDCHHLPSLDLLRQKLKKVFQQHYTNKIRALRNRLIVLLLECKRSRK

For the compound `Cc1cc(F)ccc1C(=O)Nc1cc(-c2[nH]c3c(c2Nc2ccccc2)C(=O)CNC3)ccn1` [Example 264, 4-Fluoro-2-methyl-N-4-[4-oxo-3-(phenylamino)-4,5,6,7-tetrahydro-1H-pyrrolo[2,3-c]pyridin-2-yl]pyridin-2-ylbenzamide], the IC50 (in general, the concentration at which inhibition is half-maximal) was determined as 81 nM. Regarding `COc1cnccc1-c1[nH]c2c(c1Nc1ccccc1)C(=O)CN(S(=O)(=O)C(C)C)C2` [Example 109, 2-(3-Methoxypyridin-4-yl)-3-(phenylamino)-6-(propan-2-ylsulfonyl)-1,5,6,7-tetrahydro-4H-pyrrolo[2,3-c]pyridin-4-one], the concentration for half-maximal inhibition (IC50) amounted to 7 nM.

Consider `C[S+]([O-])CC(=O)Nc1cc(-c2[nH]c3c(c2Nc2ccccc2)C(=O)COC3)ccn1` (centres unmarked) [Example 47, 2-(Methylsulfinyl)-N-{4-[4-oxo-3-(phenylamino)-1,4,5,7-tetrahydropyrano[3,4-b]pyrrol-2-yl]pyridin-2-yl}acetamide], for which the IC50 turned out to be 341 nM. Consider `CC(=O)Nc1cc(-c2[nH]c3c(c2Nc2ccccc2)C(=O)CN(C(=O)c2cncs2)C3)ccn1` [Example 175, N-{4-[3-Anilino-4-oxo-6-(1,3-thiazol-5-ylcarbonyl)-4,5,6,7-tetrahydro-1H-pyrrolo[2,3-c]pyridin-2-yl]pyridin-2-yl}acetamide], for which the IC50 was 8 nM.

Turning to `O=C(Nc1cc(-c2[nH]c3c(c2Nc2ccccc2)C(=O)COC3)ccn1)c1cnco1` [Example 50, N-{4-[4-Oxo-3-(phenylamino)-1,4,5,7-tetrahydropyrano[3,4-b]pyrrol-2-yl]pyridin-2-yl}-1,3-oxazole-5-carboxamide], the IC50 was found to be 26 nM.

Turning to `CC(=O)Nc1cc(-c2[nH]c3c(c2Nc2ccc(C)cc2)C(=O)CN(C(=O)OC(C)C)C3)ccn1` [Example 323, Propan-2-yl 2-[2-(acetylamino)pyridin-4-yl]-3-[(4-methylphenyl)amino]-4-oxo-1,4,5,7-tetrahydro-6H-pyrrolo[2,3-c]pyridine-6-carboxylate], the 50% inhibitory concentration (IC50) turned out to be 229 nM. With `O=C1CN(C(=O)Nc2cccnc2)Cc2[nH]c(-c3ccncc3)c(Nc3ccccc3)c21` [Example 97, 4-Oxo-3-(phenylamino)-N-(pyridin-3-yl)-2-(pyridin-4-yl)-1,4,5,7-tetrahydro-6H-pyrrolo[2,3-c]pyridine-6-carboxamide] the figure was 59 nM; with `O=C1CN(C(=O)NC2CC2)Cc2[nH]c(-c3ccncc3)c(Nc3ccccc3)c21` [Example 84, N-Cyclopropyl-4-oxo-3-(phenylamino)-2-(pyridin-4-yl)-1,4,5,7-tetrahydro-6H-pyrrolo[2,3-c]pyridine-6-carboxamide], 9 nM. With `CC(=O)Nc1cc(-c2[nH]c3c(c2Nc2ccccc2)C(=O)CNC3)ccn1` [Example 24, N-{4-[4-Oxo-3-(phenylamino)-4,5,6,7-tetrahydro-1H-pyrrolo[2,3-c]pyridin-2-yl]pyridin-2-yl}acetamide] the figure was 154 nM; with `O=C1COCc2[nH]c(-c3ccncc3Br)c(Nc3ccccc3)c21` [Example 41, 2-(3-Bromopyridin-4-yl)-3-(phenylamino)-1,7-dihydropyrano[3,4-b]pyrrol-4(5H)-one], 233 nM. Consider `O=C(Nc1cc(-c2[nH]c3c(c2Nc2ccccc2)C(=O)CN(S(=O)(=O)c2cnc[nH]2)C3)ccn1)c1cncs1` [Example 161, N-{4-[3-Anilino-6-(1H-imidazol-5-ylsulfonyl)-4-oxo-4,5,6,7-tetrahydro-1H-pyrrolo[2,3-c]pyridin-2-yl]pyridin-2-yl}-1,3-thiazole-5-carboxamide], for which the concentration for half-maximal inhibition (IC50) is 5 nM. For `CC(=O)Nc1cc(-c2[nH]c3c(c2Nc2ccc(C)cc2)C(=O)CN(S(=O)(=O)C(C)C)C3)ccn1` [Example 318, N-(4-(3-[(4-Methylphenyl)amino]-4-oxo-(propan-2-ylsulfonyl)-1,5,6,7-tetrahydro-1H-pyrrolo[2,3-c]pyridin-2-yl)pyridin-2-yl)acetamide], the concentration for half-maximal inhibition (IC50) was 31 nM. Take `CCN(CC)C(=O)N1CC(=O)c2c([nH]c(-c3ccnc(NC(C)=O)c3)c2Nc2ccccc2)C1` [Example 167, 2-(2-Acetamidopyridin-4-yl)-3-anilino-N,N-diethyl-4-oxo-1,4,5,7-tetrahydro-6H-pyrrolo[2,3-c]pyridine-6-carboxamide]: the IC50 came to 6 nM.

With `COCCNC(=O)N1CC(=O)c2c([nH]c(-c3ccncc3)c2Nc2ccccc2)C1` [Example 86, N-(2-Methoxyethyl)-4-oxo-3-(phenylamino)-2-(pyridin-4-yl)-1,4,5,7-tetrahydro-6H-pyrrolo[2,3-c]pyridine-6-carboxamide], the IC50 worked out at 11 nM. With `CN(C)CCOc1cnccc1-c1[nH]c2c(c1Nc1ccccc1)C(=O)CN(S(=O)(=O)N(C)C)C2` [Example 279, 2-3-[2-(Dimethylamino)ethoxy]pyridin-4-yl-N,N-dimethyl-4-oxo-3-(phenylamino)-1,4,5,7-tetrahydro-6H-pyrrolo[2,3-c]pyridine-6-sulfonamide] the figure was 6 nM. As to `CC(=O)Nc1cc(-c2[nH]c3c(c2Nc2ccc(F)cc2)C(=O)CN(C(C)=O)C3)ccn1` [Example 312, N-(4-(6-Acetyl-3-[(4-fluorophenyl)amino]-4-oxo-4,5,6,7-tetrahydro-1H-pyrrolo[2,3-c]pyridin-2-yl)pyridin-2-yl)acetamide], the IC50 came out at 16 nM. On to `O=C1CN(S(=O)(=O)CCO)Cc2[nH]c(-c3ccncc3)c(Nc3ccccc3)c21` [Example 123, 3-Anilino-6-[(2-hydroxyethyl)sulfonyl]-2-(pyridin-4-yl)-1,5,6,7-tetrahydro-4H-pyrrolo[2,3-c]pyridin-4-one], for which the 50% inhibitory concentration (IC50) came to 3 nM. The result for `Nc1cc(-c2[nH]c3c(c2Nc2ccccc2)C(=O)COC3)ccn1` [Example 22, 2-(2-Aminopyridin-4-yl)-3-(phenylamino)-1,7-dihydropyrano[3,4-b]pyrrol-4(5H)-one] reads 503 nM. On to `CC(C)(C)OC(=O)N1CC(=O)c2c([nH]c(-c3ccncc3)c2Nc2ccccc2)C1` [Example 3, tert-Butyl 4-oxo-3-(phenylamino)-2-(pyridin-4-yl)-1,4,5,7-tetrahydro-6H-pyrrolo[2,3-c]pyridine-6-carboxylate], for which the IC50 is 10 nM. Regarding `CC(C)(C)OC(=O)N1CC(=O)c2c([nH]c(-c3ccnc(N)c3)c2Nc2ccc(F)cc2)C1` [Example 296, tert-Butyl 2-(2-aminopyridin-4-yl)-3-[(4-fluorophenyl)amino]-4-oxo-1,4,5,7-tetrahydro-6H-pyrrolo[2,3-c]pyridine-6-carboxylate], the half-inhibitory concentration (IC50) amounted to 172 nM. The result for `COC(=O)N1CC(=O)c2c([nH]c(-c3ccncc3)c2Nc2ccccc2)C1` [Example 18, Methyl 4-oxo-3-(phenylamino)-2-(pyridin-4-yl)-1,4,5,7-tetrahydro-6H-pyrrolo[2,3-c]pyridine-6-carboxylate] reads 6 nM; that for `O=C1CN(S(=O)(=O)c2ccccn2)Cc2[nH]c(-c3ccncc3)c(Nc3ccccc3)c21` [Example 74, 3-(phenylamino)-2-(pyridin-4-yl)-6-(pyridin-2-ylsulfonyl)-1,5,6,7-tetrahydro-4H-pyrrolo[2,3-c]pyridin-4-one], 6 nM; that for `CC(=O)Nc1cc(-c2[nH]c3c(c2Nc2ccccc2)C(=O)CN(C(=O)c2cnsc2)C3)ccn1` [Example 193, N-{4-[3-Anilino-4-oxo-6-(1,2-thiazol-4-ylcarbonyl)-4,5,6,7-tetrahydro-1H-pyrrolo[2,3-c]pyridin-2-yl]pyridin-2-yl}acetamide], 19 nM.

(Values after patent US20200216439A1, “HETERO-1,5,6,7-TETRAHYDRO-4H-INDOL-4-ONES” (BAYER PHARMA AKTIENGESELLSCHAFT, priority 2015, published 2020).)
